Measurements: patent US8299048B2, “Hexahydrocyclopentyl[f]indazole sulfonamides and derivatives thereof as selective glucocorticoid receptor modulators” (Merck Sharp & Dohme Corp., priority 2008, dated 2012)
Read-outs that look alike come from different tables or passages of the source.

Target: T1, human GR (Homo sapiens, UniProt P04150)
T1 sequence (P04150 1-777): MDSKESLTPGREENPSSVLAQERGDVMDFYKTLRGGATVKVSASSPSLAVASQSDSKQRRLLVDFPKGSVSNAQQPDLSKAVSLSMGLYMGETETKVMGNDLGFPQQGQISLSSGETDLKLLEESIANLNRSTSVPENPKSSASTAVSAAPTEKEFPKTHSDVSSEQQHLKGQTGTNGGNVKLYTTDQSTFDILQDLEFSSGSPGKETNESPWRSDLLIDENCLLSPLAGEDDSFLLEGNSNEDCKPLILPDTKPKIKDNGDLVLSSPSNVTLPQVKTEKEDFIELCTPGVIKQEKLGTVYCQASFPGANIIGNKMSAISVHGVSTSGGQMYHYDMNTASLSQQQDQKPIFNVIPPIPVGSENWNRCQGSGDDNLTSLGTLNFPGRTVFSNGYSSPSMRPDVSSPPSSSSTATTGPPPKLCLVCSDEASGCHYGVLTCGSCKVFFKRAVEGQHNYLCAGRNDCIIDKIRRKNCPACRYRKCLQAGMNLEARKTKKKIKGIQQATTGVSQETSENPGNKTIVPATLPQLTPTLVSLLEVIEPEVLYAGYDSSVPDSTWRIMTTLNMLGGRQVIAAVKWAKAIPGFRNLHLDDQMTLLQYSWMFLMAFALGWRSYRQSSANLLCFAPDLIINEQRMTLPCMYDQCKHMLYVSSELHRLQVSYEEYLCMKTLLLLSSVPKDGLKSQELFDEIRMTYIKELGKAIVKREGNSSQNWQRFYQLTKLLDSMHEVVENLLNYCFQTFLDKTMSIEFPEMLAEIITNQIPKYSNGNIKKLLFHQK
Assay: Transrepression Assay (GITAR), TNFα-β-lactamase reporter in U937 cells
Type: cell-based
Parameters: U937 cells contain an endogenous glucocorticoid receptor (GR); endogenous in cells; host or cells: U937 cells stably transfected with the TNF-alpha promoter/beta-lactamase reporter
Conditions: for GITAR > GRAMM % SEP: GITAR Emax minus GRAMMER Emax; for EC50: U937 cells, inflection point, read-out: Transrepression U937 Cells GITAR IP
Method in brief: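 Repression normalised to 100 nM dexamethasone (100%), measured with CCF2-AM β-lactamase substrate after 70–90 min at room temperature. Stably transfected U937 cells were exposed to compound 30–45 min, then to PMA (5 ng/ml final) plus LPS (100 ng/ml final) overnight (~18 hr), 37° C.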

[1] = U-937, U937 cells, maximum activity, read-out: Transrepression U937 Cells GITAR Emax
[2] = U-937, activity repressed by 100 nM dexamethasone alone set as 100%, read-out: maximal activity in the transrepression (GITAR) assay

Row | Structure (SMILES) | GITAR > GRAMM % SEP | EC50 | Emax [1] | Emax [2]
1 | Cc1nn(C)c(Cl)c1S(=O)(=O)N(CC#N)C[C@H]1CCC2=Cc3c(cnn3-c3ccc(F)cc3)C[C@@]21C [Example 52, 5-chloro-N-(cyanomethyl)-N-{[(4αR,5S)-1-(4-fluorophenyl)-4α-methyl-1,4,4α,5,6,7-hexahydrocyclopenta[f]indazol-5-yl]methyl}-1,3-dimethyl-1H-pyrazole-4-sulfonamide] | 22.5% | 869 nM | 54.4% | > 5%
2 | C[C@]12Cc3cnn(-c4ccc(F)cc4)c3C=C1CC[C@@H]2CN(CCc1ccccc1F)S(=O)(=O)Cc1ccccc1C(N)=O [Example 190, 2-{[([2-(2-fluorophenyl)ethyl]{[(4αR,5S)-1-(4-fluorophenyl)-4α-methyl-1,4,4α,5,6,7-hexahydrocyclopenta[f]indazol-5-yl]methyl}amino)sulfonyl]methyl}benzamide] | 12.4% | 388 nM | 77.4% | > 5%
3 | C[C@H](O)CN(C[C@H]1CCC2=Cc3c(cnn3-c3ccc(F)cc3)C[C@@]21C)S(=O)(=O)Cc1ccccc1C(=O)O [Example 183, 2-[({{[(4αR,5S)-1-(4-fluorophenyl)-4α-methyl-1,4,4α,5,6,7-hexahydrocyclopenta[f]indazol-5-yl]methyl}[(2S)-2-hydroxypropyl]amino}sulfonyl)methyl]benzoic acid] | 8.2% | 3310 nM | 23.2% | > 5%
4 | C[C@]12Cc3cnn(-c4ccc(F)cc4)c3C=C1CC[C@@H]2CN(CC#N)S(=O)(=O)c1cc(F)cc(F)c1 [Example 44, N-(cyanomethyl)-3,5-difluoro-N-{[(4αR,5S)-1-(4-fluorophenyl)-4α-methyl-1,4,4α,5,6,7-hexahydrocyclopenta[f]indazol-5-yl]methyl}benzenesulfonamide] | 20.8% | 1050 nM | 65.6% | > 5%
5 | C[C@]12Cc3cnn(-c4ccc(F)cc4)c3C=C1CC[C@@H]2CN(CC1CC1)S(=O)(=O)Cc1ccccc1 [Example 21, N-(cyclopropylmethyl)-N-{[(4αR,5S)-1-(4-fluorophenyl)-4α-methyl-1,4,4α,5,6,7-hexahydrocyclopenta[f]indazol-5-yl]methyl}-1-phenylmethanesulfonamide] | – | 365 nM | 58.7% | > 5%
6 | Cc1ccccc1S(=O)(=O)N(CC#N)C[C@H]1CCC2=Cc3c(cnn3-c3ccc(F)cc3)C[C@@]21C [Example 49, N-(cyanomethyl)-N-{[(4αR,5S)-1-(4-fluorophenyl)-4α-methyl-1,4,4α,5,6,7-hexahydrocyclopenta[f]indazol-5-yl]methyl}-2-methylbenzenesulfonamide] | 8.9% | 922 nM | 23% | > 5%
7 | Cn1cc(S(=O)(=O)N(CC#N)C[C@H]2CCC3=Cc4c(cnn4-c4ccc(F)cc4)C[C@@]32C)c(C(F)(F)F)n1 [Example 32, N-(cyanomethyl)-N-{[(4αR,5S)-1-(4-fluorophenyl}-4α-methyl-1,4,4α,5,6,7-hexahydrocyclopenta[f]indazol-5-yl]methyl}-1-methyl-3-(trifluoromethyl)-1H-pyrazole-4-sulfonamide] | 33.7% | 555 nM | 63.1% | > 5%
8 | CCS(=O)(=O)N(CC1CCCO1)C[C@H]1CCC2=Cc3c(cnn3-c3ccc(F)cc3)C[C@@]21C (stereo partly drawn) [Example 174, N-{[(4αR,5S)-1-(4-fluorophenyl)-4α-methyl-1,4,4α,5,6,7-hexahydrocyclopenta[f]indazol-5-yl]methyl}-N-(tetrahydrofuran-2-ylmethyl)ethanesulfonamide] | 4.2% | 423 nM | 85.3% | > 5%
9 | C[C@@H](O)CN(C[C@H]1CCC2=Cc3c(cnn3-c3ccc(F)cc3)C[C@@]21C)S(=O)(=O)Cc1ccccc1C(N)=O [Example 184, 2-[({{[(4αR,5S)-1-(4-fluorophenyl)-4α-methyl-1,4,4α,5,6,7-hexahydrocyclopenta[f]indazol-5-yl]methyl}[(2R)-2-hydroxypropyl]amino}sulfonyl)methyl]benzamide] | 38.7% | 562 nM | 60.3% | > 5%
10 | C[C@]12Cc3cnn(-c4ccc(F)cc4)c3C=C1CC[C@@H]2CN(CC#N)S(=O)(=O)c1ccc(C#N)cc1 [Example 28, 4-cyano-N-(cyanomethyl)-N-{[(4αR,5S)-1-(4-fluorophenyl)-4α-methyl-1,4,4α,5,6,7-hexahydrocyclopenta[f]indazol-5-yl]methyl}benzenesulfonamide] | 34.8% | 662 nM | 78.8% | > 5%
11 | Cc1cc(S(=O)(=O)N(CC#N)C[C@H]2CCC3=Cc4c(cnn4-c4ccc(F)cc4)C[C@@]32C)c(C)cc1Cl [Example 29, 4-chloro-N-(cyanomethyl)-N-{[(4αR,5S)-1-(4-fluorophenyl)-4α-methyl-1,4,4α,5,6,7-hexahydrocyclopenta[f]indazol-5-yl]methyl}-2,5-dimethylbenzenesulfonamide] | 26.2% | 838 nM | 30.9% | > 5%
12 | C[C@]12Cc3cnn(-c4ccc(F)cc4)c3C=C1CC[C@@H]2CN(CC#N)S(=O)(=O)c1ccc(Oc2ccccn2)cc1 [Example 45, N-(cyanomethyl)-N-{[(4αR,5S)-1-(4-fluorophenyl)-4α-methyl-1,4,4α,5,6,7-hexahydrocyclopenta[f]indazol-5-yl]methyl}-4-(pyridin-2-yloxy)benzenesulfonamide] | 1.3% | 1390 nM | 12.8% | > 5%
13 | Cc1oncc1S(=O)(=O)N(CCO)C[C@H]1CCC2=Cc3c(cnn3-c3ccc(F)cc3)C[C@@]21C [Example 56, N-{[(4αR,5S)-1-(4-fluorophenyl)-4α-methyl-1,4,4α,5,6,7-hexahydrocyclopenta[f]indazol-5-yl]methyl}-N-(2-hydroxyethyl)-5-methylisoxazole-4-sulfonamide] | 36.1% | 643 nM | 86.9% | > 5%
14 | CC(C)(O)CN(C[C@H]1CCC2=Cc3c(cnn3-c3ccc(F)cc3)C[C@@]21C)S(=O)(=O)c1ccccc1F [Example 199, 2-fluoro-N-{[(4αR,5S)-1-(4-fluorophenyl)-4α-methyl-1,4,4α,5,6,7-hexahydrocyclopenta[f]indazol-5-yl]methyl}-N-(2-hydroxy-2-methylpropyl)benzenesulfonamide] | 22.2% | 506 nM | 80.8% | > 5%
15 | C[C@]12Cc3cnn(-c4ccc(F)cc4)c3C=C1CC[C@@H]2CN(CCO)S(=O)(=O)c1ccc(C#N)cc1Cl [Example 60, 2-chloro-4-cyano-N-{[(4αR,5S)-1-(4-fluorophenyl)-4α-methyl-1,4,4α,5,6,7-hexahydrocyclopenta[f]indazol-5-yl]methyl}-N-(2-hydroxyethyl)benezenesulfonamide] | 29.0% | 813 nM | 52% | > 5%
